The values that follow come from EP0748311B1, “THERAPEUTIC BENZONITRILES” (THE WELLCOME FOUNDATION LIMITED, priority 1994, dated 1995).

In general, IC50 refers to the concentration that gives 50% inhibition.

Molecules are shown by their SMILES. Read-outs that look alike come from different tables or passages of the source.

The subject of one data set is HIV-1 (strain 3B). The experiment in a line: HIV assay: reversal of the cytopathic effect of HIV infection in MT4 cells (propidium iodide dye uptake). The class given is cell-based. Conditions: Human immunodeficiency virus 1, 120 h, Anti-HIV-1 activity, day 5 post infection. Here is the method: Anti-HIV activity of compounds of the invention was determined using the method of Averett D.R., J.Virol. Methods, […], 23, 263-276, by measuring the ability of the compound to reverse the cytopathic effect of HIV infection. This was determined by a quantitative assessment of cell growth monitored at the fifth day post infection by a propidium iodide dye uptake test. MT4 cells were incubated with 100XTCID50 of HIV-1 (strain 3B) or HIV-2 (strain ZY) for one hour prior to addition of the compound in six different concentrations varying from 2 to 200 µM. The cells were allowed to incubate for five days at 37°C. On day 5, NP-40, a detergent, was added to a final concentration of 0.5% immediately prior to analysis. Cell number was determined using a method which measures the fluorescence of a dye (propidium iodide) which binds to DNA. Since the amount of DNA is directly proportional to cell number, this fluorescence assay is an indication of cell growth. While uninfected cells double in cell number several times during the five days duration of the assay, HIV-infected cells grow very little, if at all. A compound which reverses the cytopathic effect of HIV would allow for rapid cell growth, approaching that of the mock-infected cells. […]

A further data set has as its system male Lewis rats. The experiment in a line: Carrageenan pleurisy assay (4 hour). The class given is in vivo. Conditions: 4 h after carrageenan, relative to solvent (vehicle) control animals; for % INHIBITION CELLS: inflammatory cells (neutrophils) in pleural exudate; for % INHIBITION EDEMA: pleural edema. Here is the method: The antiinflammatory activity of compounds of the invention was determined by the procedure of Vinegar, R. et al., Proc. Soc. Exp. Biol. Med., 1981, 168, 24-32, using male Lewis rats of 150 ± 20 grams. The carrageenan dose was 0.075 mg/rat. Pleural exudate was harvested four hours after injection of carageenan. Acute antiinflammatory activity was determined by inhibition of pleural edema and infammatory cells (neutrophils) from a negative (vehicle) control group.
Acute Anti-inflammatory Activity of Compounds in the 4 Hour Carrageenan Pleurisy Assay in Rats

A short description of data set [1]: Cytotoxicity: inhibition of cell growth. The format is cell-based. Conditions: human. As to the method:
Compounds of the invention were tested for the inhibition of growth of human T-cells (Molt 4), B-cells (IM9) and CEM cells by the method of Averett, D.R., J. Virol. Methods, 23, 263-276 (1989). Cells were grown as described in Prus, K.L., et al., Cancer Res., 50(6), 1817-1821 (1990).

As to `Cc1cc(C)cc(S(=O)(=O)c2cccc(N)c2C#N)c1` [Example 4, 2-Amino-6-[(3,5-dimethylphenyl)sulfonyl]benzontrile], the concentration for half-maximal inhibition (IC50) with HIV-1 (strain 3B) is 14 ± 1 nM. The “% INHIBITION CELLS” value amounted to 0% with male Lewis rats (@ 25 MG/KG (IP)) and 29% with male Lewis rats (@ 50 MG/KG (PO)). Besides, the “% INHIBITION EDEMA” value is recorded as 5% in the data set with male Lewis rats (@ 25 MG/KG (IP)) and 31% in the data set with male Lewis rats (@ 50 MG/KG (PO)). Moreover, the viability at 100 µM was found to be 70% in data set [1] (cem cells, read-out: % of Cells Surviving at 100 µM); 97% in data set [1] (im9 cells, read-out: % of Cells Surviving at 100 µM); 91% in data set [1] (molt 4 cells, Molt4, read-out: % of Cells Surviving at 100 µM).

As to `COc1cccc(S(=O)(=O)c2cccc(N)c2C#N)c1` [Example 2, 2-Amino-6-[(3-methoxyphenyl)sulfonyl]benzonitrile], the IC50 with HIV-1 (strain 3B) is 920 ± 40 nM.
